According to ChEMBL document CHEMBL1201862, “PubChem BioAssay data set” (2004):
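Briefly, cells in 96-well plates were exposed to five compound concentrations for 48 h, and endpoints were estimated by linear interpolation. GI50 = concentration required for 50% inhibition of growth.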 Activity calls are given as the source filed them. Rule as the data show it: active = GI50 up to about 1.1 µM and inactive = higher.

Assays:
Test in all cases: growth of human tumour cells (NCI), 48 h
CCRF-CEM = test system: CCRF-CEM
Hs-578T = test system: Hs-578T
HT-29 = test system: HT-29
RXF 393 = test system: RXF 393
KM12 = test system: KM12
UACC-257 = test system: UACC-257
MDA-MB-231 = test system: MDA-MB-231
SK-OV-3 = test system: SK-OV-3
HCT-15 = test system: HCT-15
NCI/ADR-RES = test system: NCI/ADR-RES
Malme-3M = test system: Malme-3M
OVCAR-3 = test system: OVCAR-3
A498 = test system: A498
SW-620 = test system: SW-620
ACHN = test system: ACHN
NCI-H522 = test system: NCI-H522
SNB-19 = test system: SNB-19
T47D = test system: T47D
SF-539 = test system: SF-539
SR = test system: SR
UACC-62 = test system: UACC-62
U-251 = test system: U-251
NCI-H226 = test system: NCI-H226
MOLT-4 = test system: MOLT-4
SNB-75 = test system: SNB-75
HCC 2998 = test system: HCC 2998
HCT-116 = test system: HCT-116
LOX IMVI = test system: LOX IMVI
PC-3 = test system: PC-3
SF-268 = test system: SF-268
MDA-N = test system: MDA-N
SF-295 = test system: SF-295
CAKI-1 = test system: CAKI-1
SK-MEL-2 = test system: SK-MEL-2
K562 = test system: K562
M14 = test system: M14
MCF7 = test system: MCF7
TK-10 = test system: TK-10
HOP-92 = test system: HOP-92
NCI-H460 = test system: NCI-H460
UO-31 = test system: UO-31
SK-MEL-5 = test system: SK-MEL-5
BT-549 = test system: BT-549
MDA-MB-435 = test system: MDA-MB-435
SK-MEL-28 = test system: SK-MEL-28
OVCAR-8 = test system: OVCAR-8
OVCAR-4 = test system: OVCAR-4
HOP-62 = test system: HOP-62
NCI-H23 = test system: NCI-H23
OVCAR-5 = test system: OVCAR-5
DU-145 = test system: DU-145
COLO 205 = test system: COLO 205
IGROV-1 = test system: IGROV-1
RPMI-8226 = test system: RPMI-8226
786-0 = test system: 786-0
HL-60 = test system: HL-60
EKVX = test system: EKVX
A549 = test system: A549
SN12C = test system: SN12C

For `O=C(N/N=C\c1ccc(Cl)cc1)Nc1cccc2ccccc12`, the GI50 (CCRF-CEM) was 7960 nM (inactive), the GI50 (Hs-578T) was 2670 nM (inactive) and the GI50 (HT-29) was 3210 nM (inactive). The GI50 (RXF 393) was 3010 nM (inactive), the GI50 (KM12) was 2610 nM (inactive) and the GI50 (UACC-257) was 8750 nM (inactive). The GI50 (MDA-MB-231) was 8890 nM (inactive), the GI50 (SK-OV-3) was 2710 nM (inactive) and the GI50 (HCT-15) was 3360 nM. For the same compound, the GI50 (NCI/ADR-RES) was > 25000 nM (inactive), the GI50 (Malme-3M) was 4240 nM (inactive) and the GI50 (OVCAR-3) was 1540 nM (inactive). The GI50 (A498) was 2670 nM (inactive), the GI50 (SW-620) was 3410 nM (inactive) and the GI50 (ACHN) was 2370 nM (inactive). For the same compound, the GI50 (NCI-H522) was 4830 nM (inactive), the GI50 (SNB-19) was 2660 nM (inactive) and the GI50 (T47D) was 5520 nM (inactive). The GI50 (SF-539) was 5410 nM (inactive), the GI50 (SR) was 3160 nM (inactive) and the GI50 (UACC-62) was 9480 nM (inactive). The GI50 (U-251) was 2960 nM (inactive), the GI50 (NCI-H226) was 10400 nM (inactive) and the GI50 (MOLT-4) was 5610 nM (inactive). The GI50 (SNB-75) was 2400 nM (inactive), the GI50 (HCC 2998) was 2400 nM (inactive) and the GI50 (HCT-116) was 3040 nM (inactive). The GI50 (LOX IMVI) was 4490 nM (inactive), the GI50 (PC-3) was 5970 nM (inactive) and the GI50 (SF-268) was 6440 nM (inactive). For the same compound, the GI50 (MDA-N) was 2210 nM (inactive), the GI50 (SF-295) was 2520 nM (inactive) and the GI50 (CAKI-1) was 2420 nM (inactive). For the same compound, the GI50 (SK-MEL-2) was 21500 nM (inactive), the GI50 (K562) was 3230 nM (inactive) and the GI50 (M14) was 7160 nM (inactive). The GI50 (MCF7) was 3400 nM (inactive), the GI50 (TK-10) was 3320 nM (inactive) and the GI50 (HOP-92) was 4910 nM (inactive). The GI50 (NCI-H460) was 3240 nM (inactive), the GI50 (UO-31) was 2100 nM (inactive) and the GI50 (SK-MEL-5) was 4450 nM (inactive). For the same compound, the GI50 (BT-549) was 21700 nM (inactive), the GI50 (MDA-MB-435) was 2000 nM (inactive) and the GI50 (SK-MEL-28) was 22500 nM (inactive). The GI50 (OVCAR-8) was 5200 nM (inactive), the GI50 (OVCAR-4) was 2590 nM (inactive) and the GI50 (HOP-62) was 2010 nM (inactive). For the same compound, the GI50 (NCI-H23) was 9710 nM (inactive), the GI50 (OVCAR-5) was 25800 nM (inactive) and the GI50 (DU-145) was 5570 nM (inactive). The GI50 (COLO 205) was 4750 nM (inactive), the GI50 (IGROV-1) was 3490 nM (inactive) and the GI50 (RPMI-8226) was 5660 nM (inactive). The GI50 (786-0) was 1980 nM (inactive), the GI50 (HL-60) was 4930 nM (inactive) and the GI50 (EKVX) was 18700 nM (inactive). For the same compound, the GI50 (A549) was 6710 nM (inactive) and the GI50 (SN12C) was 9510 nM (inactive).
With `CC1(C)COC2=C(C1)C(=O)c1ccccc1C2=O` the GI50 (CCRF-CEM) was 2370 nM (inactive), the GI50 (Hs-578T) was 2880 nM (inactive) and the GI50 (HT-29) was 2530 nM (inactive). For the same compound, the GI50 (RXF 393) was 2020 nM (inactive), the GI50 (KM12) was 1760 nM (inactive) and the GI50 (UACC-257) was 828 nM (active). For the same compound, the GI50 (MDA-MB-231) was 2040 nM (inactive), the GI50 (SK-OV-3) was 1880 nM (inactive) and the GI50 (HCT-15) was 701 nM. For the same compound, the GI50 (NCI/ADR-RES) was 452 nM (active), the GI50 (Malme-3M) was 1880 nM (inactive) and the GI50 (OVCAR-3) was 750 nM (active). For the same compound, the GI50 (A498) was 2100 nM (inactive), the GI50 (SW-620) was 1690 nM (inactive) and the GI50 (ACHN) was 1550 nM (inactive). For the same compound, the GI50 (NCI-H522) was 1850 nM (inactive), the GI50 (SNB-19) was 1970 nM (inactive) and the GI50 (T47D) was 558 nM (active). For the same compound, the GI50 (SF-539) was 1540 nM (inactive), the GI50 (SR) was 2660 nM (inactive) and the GI50 (UACC-62) was 1090 nM (active). For the same compound, the GI50 (U-251) was 1430 nM (inactive), the GI50 (NCI-H226) was 2240 nM (inactive) and the GI50 (MOLT-4) was 1500 nM (inactive). For the same compound, the GI50 (SNB-75) was 1630 nM (inactive), the GI50 (HCC 2998) was 1700 nM (inactive) and the GI50 (HCT-116) was 449 nM (active). For the same compound, the GI50 (LOX IMVI) was 1880 nM (inactive), the GI50 (PC-3) was 1550 nM (inactive) and the GI50 (SF-268) was 1650 nM (inactive). The GI50 (MDA-N) was 182 nM (active), the GI50 (SF-295) was 1630 nM (inactive) and the GI50 (CAKI-1) was 2230 nM (inactive). For the same compound, the GI50 (SK-MEL-2) was 1910 nM (inactive), the GI50 (K562) was 102 nM (active) and the GI50 (M14) was 1610 nM (inactive). For the same compound, the GI50 (MCF7) was 1210 nM (inactive), the GI50 (TK-10) was 1700 nM (inactive) and the GI50 (HOP-92) was 2300 nM (inactive). For the same compound, the GI50 (NCI-H460) was 1910 nM (inactive), the GI50 (UO-31) was 1040 nM (active) and the GI50 (SK-MEL-5) was 710 nM (active). For the same compound, the GI50 (BT-549) was 1850 nM (inactive), the GI50 (MDA-MB-435) was 195 nM (active) and the GI50 (SK-MEL-28) was 1640 nM (inactive). For the same compound, the GI50 (OVCAR-8) was 493 nM (active), the GI50 (OVCAR-4) was 1530 nM (inactive) and the GI50 (HOP-62) was 1990 nM (inactive). For the same compound, the GI50 (NCI-H23) was 1540 nM (inactive), the GI50 (OVCAR-5) was 1690 nM (inactive) and the GI50 (DU-145) was 1640 nM (inactive). For the same compound, the GI50 (COLO 205) was 2200 nM (inactive), the GI50 (IGROV-1) was 1650 nM (inactive) and the GI50 (RPMI-8226) was 1320 nM (inactive). For the same compound, the GI50 (786-0) was 1840 nM (inactive), the GI50 (HL-60) was 583 nM (active) and the GI50 (EKVX) was 1900 nM (inactive). For the same compound, the GI50 (A549) was 2260 nM (inactive) and the GI50 (SN12C) was 1360 nM (inactive).
